Melting point, fold induction and EC50 data for 3 compounds are collected here from patent US7553867B2, “Furan or thiophene derivative and medicinal use thereof” (Takeda Pharmaceutical Company Limited, priority 2002, dated 2009).

For one series, the target named is T1, PPARγ-RXRα heterodimer (Homo sapiens, UniProt P37231).
T1 construct: expressed in transfected cells
T1 sequence (P37231 1-477 isoform P37231-2): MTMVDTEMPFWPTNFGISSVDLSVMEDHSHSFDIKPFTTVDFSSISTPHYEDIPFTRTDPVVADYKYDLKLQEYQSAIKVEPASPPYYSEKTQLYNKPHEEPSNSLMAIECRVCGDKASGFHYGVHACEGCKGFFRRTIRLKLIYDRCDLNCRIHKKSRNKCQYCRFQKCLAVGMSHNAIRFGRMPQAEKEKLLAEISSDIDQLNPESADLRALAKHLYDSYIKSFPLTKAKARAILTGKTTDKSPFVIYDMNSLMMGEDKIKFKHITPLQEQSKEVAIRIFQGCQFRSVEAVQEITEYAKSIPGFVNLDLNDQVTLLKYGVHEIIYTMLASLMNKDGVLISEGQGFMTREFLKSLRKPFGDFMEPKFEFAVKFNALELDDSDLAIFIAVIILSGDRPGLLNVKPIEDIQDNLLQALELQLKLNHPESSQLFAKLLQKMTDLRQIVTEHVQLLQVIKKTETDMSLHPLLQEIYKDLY
T1 sequence (P19793 1-462 partner): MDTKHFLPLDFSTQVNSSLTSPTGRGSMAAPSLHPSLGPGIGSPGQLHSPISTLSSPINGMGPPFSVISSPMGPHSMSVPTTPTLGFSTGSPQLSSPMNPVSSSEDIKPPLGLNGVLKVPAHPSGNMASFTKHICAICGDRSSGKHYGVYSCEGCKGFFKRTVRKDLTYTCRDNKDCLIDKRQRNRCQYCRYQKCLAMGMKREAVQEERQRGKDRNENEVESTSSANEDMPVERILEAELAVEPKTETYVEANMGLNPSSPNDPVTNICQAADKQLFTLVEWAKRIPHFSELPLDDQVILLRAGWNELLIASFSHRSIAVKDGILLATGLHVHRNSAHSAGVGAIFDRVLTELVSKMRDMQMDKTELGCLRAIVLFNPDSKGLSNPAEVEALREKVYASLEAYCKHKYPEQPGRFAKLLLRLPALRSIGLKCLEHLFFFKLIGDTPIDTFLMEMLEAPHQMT
Briefly: PPARγ-RXRα heterodimer ligand activity (luciferase reporter, PPARγ:RXRα:4ERPP/CHO-K1 cells). It counts as cell-based. The conditions noted are these: luciferase activity at 100 nM test compound relative to non-administration group as 1. How it is done:
The PPARγ:RXRα:4ERPP/CHO-K1 cells obtained in Reference Example 8a were cultured in Ham's F12 medium [produced by Life Technologies, Inc., USA] containing 10% fetal bovine serum [produced by Life Technologies, Inc., USA] and inoculated to a 96-well white plate [produced by Corning Coster Corporation, USA] at 2×10^4 cells/well and cultured overnight at 37° C. in a carbon dioxide gas incubator.
After removal of the medium from the 96-well white plate which had been cultured overnight, Ham's F12 medium containing 80 μl of 0.1% fatty acid-free bovine serum albumin (BSA) and 20 μl of a test compound were added, and the plate was incubated at 37° C. in a carbon dioxide gas incubator for 18 to 24 hours. After removal of the medium, 40 μl of PicaGene 7.5 (produced by Waco Pure Chemicals Industries, Ltd.) diluted twofold with HBSS (HANKS' BALANCED SALT SOLUTION) (produced by BIO WHITTAKER) was added, and after stirring, the luciferase activity was determined using 1420 ARVO Multilabel Counter [produced by Wallac].
A fold induction was calculated from the luciferase activity for addition of each 100 nM of the test compound relative to the luciferase activity of the test compound non-administration group as 1. Results are shown in [Table 1]. […]

The target of another series is T2, PPARδ-RXRα heterodimer (Homo sapiens, UniProt Q03181).
T2 construct: expressed in transfected cells; host or cells: COS-1 (transient; pMCMVneo-hPPARδ + pMCMVneo-hRXRα)
T2 sequence (Q03181 1-441): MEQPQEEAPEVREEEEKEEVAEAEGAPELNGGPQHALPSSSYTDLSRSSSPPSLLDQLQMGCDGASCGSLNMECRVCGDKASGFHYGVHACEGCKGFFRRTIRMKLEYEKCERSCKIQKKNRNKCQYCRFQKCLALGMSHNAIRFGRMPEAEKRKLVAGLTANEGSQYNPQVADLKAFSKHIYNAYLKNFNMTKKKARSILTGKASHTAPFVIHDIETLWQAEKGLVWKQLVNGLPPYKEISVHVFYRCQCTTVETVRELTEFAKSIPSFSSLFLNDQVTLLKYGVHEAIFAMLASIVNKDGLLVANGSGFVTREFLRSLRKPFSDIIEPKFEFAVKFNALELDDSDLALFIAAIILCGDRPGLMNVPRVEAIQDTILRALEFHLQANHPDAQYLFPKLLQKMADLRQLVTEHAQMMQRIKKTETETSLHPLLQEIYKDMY
T2 sequence (P19793 1-462 partner): T1 sequence (P19793 1-462 partner)
Kind of series: PPARδ-RXRα heterodimer ligand activity (luciferase reporter, transfected COS-1 cells). The format is cell-based. Particulars: luciferase activity at 10 nM test compound relative to non-administration group as 1. How it is done: At 18 to 24 hours after transfection carried out in Reference Example 9a, COS-1 cells were collected, suspended in DMEM medium [manufactured by Life Technologies, Inc., USA] containing 0.1% fatty acid-free bovine serum albumin (BSA) (produced by Waco Pure Chemicals Industries, Ltd.), and inoculated to each well of a 96-well white plate (produced by Corning, USA) at 1×10^4 cells/well in 80 μl. Subsequently, 20 μl of a test compound was added, and the plate was incubated under the conditions of 37° C. and 5% CO2 for 36 to 48 hours. After removal of the medium from the 96-well white plate, 40 μl of PicaGene. LT 7.5 (produced by Waco Pure Chemicals Industries, Ltd.) diluted twofold with HBSS (HANKS' BALANCED SALT SOLUTION) (produced by BIO WHITTAKER) was added, and after stirring, the luciferase activity was determined using 1420 ARVO Multilabel Counter [produced by Wallac].
The fold induction was calculated from the luciferase activity for addition of each 10 nM of the test compound relative to the luciferase activity of the test compound non-administration group as 1. Results are shown in [Table 2].
A COS-1 cell was inoculated in a cell culture flask (produced by Corning, USA) of 150 cm^2 at 5×10^6 cells/50 ml, and the plate was incubated under the conditions of 37° C. and 5% CO2 for 24 hours. Transfection was carried out with lipofectamine (produced by Invitrogen, USA). A transfection mixture solution was prepared by mixing 125 μl of lipofectamine, 100 μl of PLUS Reagent, 2.5 μg of pMCMVneo-hPPARδ (obtained in Reference Example 3a), 2.5 μg of pMCMVneo-hRXRα (obtained in Reference Example 4a), 5 μg of reporter plasmid pGL3-4ERPP-TK neo (obtained in Reference Example 5a) and 5 μg of pRL-tk [produced by Promega, USA] with 5 ml of opti-MEM (produced by Invitrogen, USA). To the COS-1 cell washed with opti-MEM, the above-mentioned transfection mixture solution and 20 ml of opti-MEM were added, and then incubated under the conditions of 37° C. and 5% CO2 for 3 hours. Then, 25 ml of DMEM medium [manufactured by Life Technologies, Inc., USA] containing 0.1% fatty acid-free bovine serum albumin (BSA) (produced by Waco Pure Chemicals Industries, Ltd.) was added thereto, and then incubated under the conditions of 37° C. and 5% CO2 for 18 to 24 hours.
A general note: In a reporter assay the amount or activity of a reporter protein is the signal.

In another series the target is T3, human GPR40 (Homo sapiens, UniProt O14842).
T3 construct: expressed in transfected cells; host or cells: CHO cell strain (No. 104)
T3 sequence (O14842 whole entry): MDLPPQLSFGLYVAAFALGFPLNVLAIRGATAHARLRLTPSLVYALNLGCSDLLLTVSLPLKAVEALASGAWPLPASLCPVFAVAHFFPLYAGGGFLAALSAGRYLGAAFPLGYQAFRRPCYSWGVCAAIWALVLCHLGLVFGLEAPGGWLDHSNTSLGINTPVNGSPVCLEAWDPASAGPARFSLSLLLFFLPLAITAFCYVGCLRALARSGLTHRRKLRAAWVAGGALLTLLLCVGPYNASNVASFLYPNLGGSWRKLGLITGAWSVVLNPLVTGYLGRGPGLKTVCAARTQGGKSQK
Briefly: Receptor function regulating action (agonist action) for GPR40, intracellular calcium by FLIPR in CHO cells. The format is cell-based. Particulars: CHO cells expressing human GPR40; change of fluorescence intensity at 30 seconds after reaction initiation. How it is done: CHO cell strain (No. 104) which have had expressed human GPR40 was diluted to contain 3×10^4 cells/100 μL, and added to a Black walled 96-well plate (Costar) at 100 μL/well, and incubated overnight in CO2 incubator. Change of intracellular calcium concentration was measured with FLIPR (Molecular Device). The method is as follows. 50 μg of Fluo-3AM (DOJIN) was dissolved in 21 μL of DMSO (DOJIN), and the same amount of 20% pluronic acid (Molecular Probes) was further added thereto, and the mixture was mixed. The mixture was added to 10.6 mL of an assay buffer [prepared by adding 10 mL of solution which was produced by adding 20 mL of 1 M HEPES (pH 7.4) (DOJIN) to 1 L of HBSS (Invitrogen), dissolving 710 mg of probenecid (Sigma) in 5 mL of 1N NaOH, and further adding 5 mL of the above-mentioned HBSS/HEPES solution thereto and mixing it.] containing 105 μL of fetal bovine serum, to give a fluorescent dye solution. The medium of the cell plate was removed, and immediately, the fluorescent dye solution was added at 100 μL/well, and incubated in CO2 incubator for 1 hour, allowing the fluorescent dye to be incorporated into the cells. The cells after incubation were washed with the above-mentioned assay buffer. The compound to be added to the cells was diluted with the assay buffer to each concentration, added to the plate for the test sample. After conducting the above-mentioned pretreatment, intracellular calcium concentration change after adding the compound was measured in FLIPR to investigate the agonist action. By dose-response curve with the change of fluorescence intensity value at 30 seconds after reaction initiation, EC50 value was calculated.
(A change in cytosolic calcium serves as a functional read-out for many receptors and channels.)

Regarding `CCCCCCCN(C(=O)c1cc(-c2ccc(F)cc2)oc1C)c1cccc(CSCC(=O)O)c1` [Example 1(3), [(3{[5-(4-Fluorophenyl)-2-methyl-3-furoyl](heptyl)amino}benzyl)thio]acetic acid], the melting point – broadly, the temperature of the solid-liquid transition – fell in the range of 94 to 96 °C. In addition, at PPARγ-RXRα heterodimer, the fold induction – broadly, the signal under treatment as a multiple of the control signal – at 0.1 µM was found to be 2.8.
Turning to `Cc1oc(C2CCCCC2)c(COc2cccc(CSCC(=O)O)c2)c1-c1ccc(F)cc1` [Example 5(2), [(3-{[2-Dichlorohexyl-4-(4-fluorophenyl)-5-methyl-3-furyl]methoxy}benzyl)thio]acetic acid], the fold induction at 0.1 µM at PPARγ-RXRα heterodimer was 2.3.
`COc1cc(OCc2cc(-c3ccc(C(F)(F)F)cc3)oc2C)ccc1CCC(=O)O` [Example 6(6), 3-[2-Methoxy-4-({2-methyl-5-[4-(trifluoromethyl)phenyl]-3-furyl}methoxy)phenyl]propionic acid] gave a melting point of 159 to 160 °C. Besides, the fold induction at 0.01 µM on PPARδ-RXRα heterodimer is 6.6. Moreover, the 50% effective concentration (EC50) (as a rule, the concentration that produces a half-maximal response) at human GPR40 was 160 nM.
